Earlier results as cited in patent US11491230B2, “Medication” (priority 2015, dated 2022).

What was measured:
[1] = tested on: nontumorigenic mammary cells
[2] = tested on: estrogen receptor-positive and estrogen receptor-negative breast cancer cell lines; settings: inducing apoptosis in a concentration-dependent manner
[3] = target: T1, androgen receptor in the prostate gland (Homo sapiens, UniProt P10275)
T1 construct: host or cells: prostate gland
T1 sequence (P10275 1-920): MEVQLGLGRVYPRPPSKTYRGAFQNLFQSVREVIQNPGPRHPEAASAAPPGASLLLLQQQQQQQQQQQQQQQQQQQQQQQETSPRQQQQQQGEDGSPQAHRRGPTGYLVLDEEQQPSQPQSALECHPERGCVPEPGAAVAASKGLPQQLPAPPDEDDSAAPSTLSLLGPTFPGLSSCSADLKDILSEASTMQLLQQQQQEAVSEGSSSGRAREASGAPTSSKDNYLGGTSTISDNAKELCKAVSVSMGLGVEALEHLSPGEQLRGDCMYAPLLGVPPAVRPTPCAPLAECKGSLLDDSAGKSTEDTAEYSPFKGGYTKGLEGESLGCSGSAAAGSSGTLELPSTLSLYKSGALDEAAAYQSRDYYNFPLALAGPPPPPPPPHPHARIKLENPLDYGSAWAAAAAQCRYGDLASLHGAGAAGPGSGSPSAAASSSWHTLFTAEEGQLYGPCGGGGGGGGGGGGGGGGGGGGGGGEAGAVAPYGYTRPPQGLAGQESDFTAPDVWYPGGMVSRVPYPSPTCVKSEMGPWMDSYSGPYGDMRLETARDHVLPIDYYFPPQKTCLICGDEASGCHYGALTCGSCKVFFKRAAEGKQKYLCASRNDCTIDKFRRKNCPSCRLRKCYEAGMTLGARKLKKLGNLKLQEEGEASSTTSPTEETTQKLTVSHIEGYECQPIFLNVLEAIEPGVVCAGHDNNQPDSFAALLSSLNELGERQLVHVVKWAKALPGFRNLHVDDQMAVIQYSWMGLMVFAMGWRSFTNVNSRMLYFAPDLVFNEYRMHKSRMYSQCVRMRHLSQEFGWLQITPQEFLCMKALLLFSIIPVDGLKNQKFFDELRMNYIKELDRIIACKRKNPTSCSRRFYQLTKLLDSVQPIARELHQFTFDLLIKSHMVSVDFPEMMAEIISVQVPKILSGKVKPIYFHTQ

PC-3 = PC-3 (Ruiz et al. 1999)
CB1 receptor = CB1 receptor (Homo sapiens, UniProt P21554)
CB1 receptor, sequence (P21554 whole entry): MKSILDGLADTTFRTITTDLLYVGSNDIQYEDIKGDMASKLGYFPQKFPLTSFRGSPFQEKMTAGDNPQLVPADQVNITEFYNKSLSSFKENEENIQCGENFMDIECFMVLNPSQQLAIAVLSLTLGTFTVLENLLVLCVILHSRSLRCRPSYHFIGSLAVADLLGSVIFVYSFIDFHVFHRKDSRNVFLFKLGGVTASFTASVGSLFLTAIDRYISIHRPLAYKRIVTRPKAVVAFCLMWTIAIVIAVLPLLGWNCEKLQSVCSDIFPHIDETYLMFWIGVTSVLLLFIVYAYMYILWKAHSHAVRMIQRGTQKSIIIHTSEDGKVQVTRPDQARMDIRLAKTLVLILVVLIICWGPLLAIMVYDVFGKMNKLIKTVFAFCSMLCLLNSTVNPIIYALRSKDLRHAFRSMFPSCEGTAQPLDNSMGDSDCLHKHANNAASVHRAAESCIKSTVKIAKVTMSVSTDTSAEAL

[4] = not given; remark: listed apart in the source

## C=C(C)[C@@H]1CCC(C)=C[C@H]1c1c(O)cc(CCCCC)cc1O [CBD, Cannabidiol]
[1]
  effect on nontumorigenic mammary cells: little effect
Cannabinoid receptors
  affinity to cannabinoid receptors: low affinity
[2]
  survival of breast cancer cell lines: inhibited the survival

## CCCCCc1cc(O)c2c(c1)OC(C)(C)[C@@H]1CCC(C)=C[C@@H]21 [THC, Tetrahydrocannabinol]
[3]
  specific binding of dihydroxytestosterone to the androgen receptor: inhibits specific binding
cold-pressor test after administration, dronabinol oral capsules 10 mg or 20 mg
  pain sensitivity: decreased pain sensitivity
Dronabinol versus smoked marijuana
  duration of effect: lasted longer than smoked marijuana
On the average
  time until pain reduction effects were felt after administration: 180 min
PC-3
  apoptosis: causes apoptosis

## CCCc1cc(O)c2c(c1)OC(C)(C)[C@@H]1CCC(C)=C[C@@H]21 [THCV, Tetrahydrocannabivarin]
CB1 receptor
  activity at CB1 receptor: CB1 receptor antagonist

## vitamin E
[4]; pre-menopausal women with a family history of breast cancer, highest quantity of vitamin E consumed
  reduction in breast cancer incidence: 43%
[4]; women without a family history of breast cancer
  breast cancer risk reduction: 16%
